Data published in US20030134848A1, “Substituted 1-aza-2-imino-heterocycles and their use as nicotinic acetylcholin receptors activators” (priority 2000, published 2003).

Target: T1, human α4β2 subtype of nicotinic acetylcholine receptors (Homo sapiens, UniProt P17787+P43681)
T1 construct: expressed in transfected cells; host or cells: Xenopus laevis oocytes injected with hnACh-R α4 and β2 cRNA (pSP64 polyA vector)
Experiment: Agonist activity at human α4β2 nicotinic acetylcholine receptors expressed in Xenopus oocytes (membrane potential holding method)
Format: cell-based
Conditions: 100 μM test compound vs response at 10 μM acetylcholine (100%)
Experimental: The agonist effect in human α4β2 subtype of nicotinic acetylcholine receptors are examined by using human nicotinic acetylcholine receptors prepared in oocytes of Xenopus laevis, which is injected with cRNA from the corresponding cloning cDNA of human α4 and β2 subunits of nicotinic acetylcholine receptors, and to measure the expression of the electric response by adding the test compounds to perfusion solution by means of membrane potential holding method.
The agonist activities of the compounds of the present invention at human 4β2 subtype of nicotinic acetylcholine receptors was evaluated by the following method, which was modified method described by Papke R. L., Thinschmidt J. S., Moulton B. A., Meyer E. M. & Poirier A., Br. J. Pharmacol., 120, 429-438 (1997).
(1) Preparation of cRNA of Human α4β2 Subtype of Nicotinic Acetylcholine Receptors
The cloning of human nicotinic acetylcholine receptor (hnACh-R) α4 cDNA and hnAC-R β2 cDNA were performed, in accordance with the conventional manners, by synthesizing the each DNA primers corresponding to the sequences of hnACh-R α4 cDNA and hnACh-R β2 cDNA [Monteggia L. M. et al., Gene, 155, 189-193 (1995); and Anand R., & Lindstrom J., Nucl. Acids Res., 18, 4272 (1990)], and obtained hnACh-R α4 cDNA and hnACh-R β2 cDNA by polymerase chain reaction (PCR), respectively. The obtained hnACh-R α4 cDNA and hnACh-R β2 cDNA were inserted to the cRNA expression vector (pSP64 polyA) having SP6 RNA promoter to construct hnACh-R α4/pSP64 polyA and hnACh-R β2/pSP64 polyA, respectively. After cutting from expression vector by restriction enzyme (EcoRI), transcription was performed by affecting SP6 RNA polymerase in the presence of cap analogues to obtain hnACh-R α4 cRNA and hnACh-R β2 cRNA, respectively.
(2) Expression of Human α4β2 Subtype Nicotinic Acetylcholine Receptors in Xenopus oocytes
Oocytes were purchased from Kitanihonseibutsukyohzai Co., Ltd., which were already enucleated from Xenopus laevis, and used in this experiment.
The oocytes were treated with collagenase (Sigma type I; 1 mg/ml) in calcium-free modified Birth's solution (88 mM of NaCl, 1 mM of KCl, 2.4 mM of NaHCO3, 0.82 mM of MgSO4, 15 mM of HEPES, pH 7.6) under gently stirring at room temperature for 90 minutes, and washed out the enzyme from the tissue. Then, oocytes were separated from ovarian follicle by tweezers, and isolated oocytes were placed in antibiotics containing modified Birth's solution (88 mM of NaCl, 1 mM of KCl, 2.4 mM of NaHCO3, 0.82 mM of MgSO4, 15 mM of HEPES, pH 7.6, and 0.1 v/v % of mixture solution containing of penicillin and streptomycin for incubation; Sigma Co.). […] In oocytes, heterogeneous quintuple [(α4)2(β2)3] was composed by translation of injected cRNAs, and ion channel receptors were constructed on cell membrane.
(3) Agonist Activities at Human α4β2 Subtype of Nicotinic Acetylcholine Receptors
The recordings of responses at human α4β2 subtype of nicotinic acetylcholine receptors by means of membrane potential holding method were performed as follow. […] The membrane electric potentials were held at −50 mV by mean of the two electric membranes potential holding method (CEZ-1250; Nihon Kohden Co.). Test compounds were added to the perfusion solution, and recorded the peak strength of induced inward current. In order to normalize the responses of test compounds, the responses with acetylcholine (Ach) were recorded before and after application of the test compounds. Generally in the oocytes just after isolated, the response of intrinsic muscarinic acetylcholine receptors, which is inward electric current caused by activation of calcium dependence chloride ion channels with increase of the intracellular calcium concentration by stimulation of receptors, is observed.

T1 sequence (P43681 29-627 limits assumed): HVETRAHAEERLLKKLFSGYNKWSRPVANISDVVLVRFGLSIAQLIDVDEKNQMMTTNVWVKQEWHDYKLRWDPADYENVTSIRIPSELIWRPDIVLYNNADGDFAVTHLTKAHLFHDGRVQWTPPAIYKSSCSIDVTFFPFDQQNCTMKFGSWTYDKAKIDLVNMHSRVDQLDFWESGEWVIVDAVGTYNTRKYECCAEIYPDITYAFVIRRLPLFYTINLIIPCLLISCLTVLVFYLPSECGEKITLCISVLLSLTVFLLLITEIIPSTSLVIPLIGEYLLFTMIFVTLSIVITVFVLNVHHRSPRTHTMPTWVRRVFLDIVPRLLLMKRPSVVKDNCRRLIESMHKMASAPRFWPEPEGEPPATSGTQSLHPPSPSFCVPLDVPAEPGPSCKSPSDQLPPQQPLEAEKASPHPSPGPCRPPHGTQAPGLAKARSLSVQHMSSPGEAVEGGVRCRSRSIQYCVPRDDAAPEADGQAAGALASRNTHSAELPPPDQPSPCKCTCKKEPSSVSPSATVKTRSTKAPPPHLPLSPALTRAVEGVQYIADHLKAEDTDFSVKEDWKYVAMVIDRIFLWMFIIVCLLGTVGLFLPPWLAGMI
T1 sequence (P17787 26-502): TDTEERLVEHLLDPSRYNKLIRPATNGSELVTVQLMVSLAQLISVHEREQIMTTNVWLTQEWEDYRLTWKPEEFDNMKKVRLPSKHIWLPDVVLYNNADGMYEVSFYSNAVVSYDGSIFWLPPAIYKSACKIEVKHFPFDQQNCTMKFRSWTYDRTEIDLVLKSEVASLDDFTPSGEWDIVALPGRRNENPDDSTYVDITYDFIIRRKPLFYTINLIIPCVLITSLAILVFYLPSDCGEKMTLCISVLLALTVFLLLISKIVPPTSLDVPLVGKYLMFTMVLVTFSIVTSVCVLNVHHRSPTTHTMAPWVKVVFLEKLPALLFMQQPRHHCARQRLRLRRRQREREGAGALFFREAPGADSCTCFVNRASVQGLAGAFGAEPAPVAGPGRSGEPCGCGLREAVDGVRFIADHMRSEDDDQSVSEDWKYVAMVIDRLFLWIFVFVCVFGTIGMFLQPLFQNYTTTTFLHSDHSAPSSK

SMILES | control % by response at 100 μM of the test compounds
Nc1nccn1CCc1cnccn1 [Compound 31, 2-amino-1-[2-(2-pyrazinyl)ethyl]imidazole] | (15%)
N=C1NCCCN1CCc1ccc(Cl)nc1 [Compound 12, 1-[2-(6-chloro-3-pyridyl)ethyl]-2-imino-1,2,3,4,5,6-hexahydro-pyrimidine] | (8%)

Same assay, conditions: Xenopus oocytes, held at −50 mV, peak inward current; read-out: Agonist activity (ED50)

SMILES | EC50
Nc1nccn1CCc1cccnn1 [Compound 30, 2-amino-1-[2-(3-pyridazinyl)ethyl]imidazole] | 46 µM
Cc1ccc(CCn2ccnc2N)cn1 [Compound 11, 2-amino-1-[2-(6-methyl-3-pyridyl)ethyl]imidazole] | 7.5 µM
Nc1nccn1CCc1cnc(Cl)c(Cl)c1 [Compound 13, 2-amino-1-[2-(5,6-dichloro-3-pyridyl)ethyl]-imidazole] | 2.4 µM
Nc1nccn1CCc1ccnnc1 [Compound 34, 2-amino-1-[2-(4-pyridazinyl)ethyl]imidazole] | 170 µM
Cc1cncc(CCn2ccnc2N)c1 [Compound 27, 2-amino-1-[2-(5-methyl-3-pyridyl)ethyl]imidazole] | 6.2 µM
Nc1nccn1CCc1cnc(Cl)s1 [Compound 23, 2-amino-1-[2-(2-chloro-5-thiazolyl)ethyl]imidazole] | 13 µM
Nc1nccn1CCc1cncc(Br)c1 [Compound 25, 2-amino-1-[2-(5-bromo-3-pyridyl)ethyl]imidazole] | 3 µM
Nc1nccn1CCc1cccnc1 [Compound 14, 2-amino-1-[2-(3-pyridyl)ethyl]imidazole] | 2 µM
Nc1nccn1CCc1cncnc1 [Compound 29, 2-amino-1-[2-(5-pyrimidyl)ethyl]imidazole] | 3.7 µM
